For one test, the target named is EGFR_d746-750 (Homo sapiens, UniProt P00533, DEL746-750). The test is described as follows: Enzyme assay, IC50 for single mutant EGFR_d746-750 (Caliper). The class given is biochemical. Conditions: enzyme phosphorylation assay. The procedure: (§1) Using the same technique as described in the previous paragraph, various mutated forms of the epidermal growth factor receptor may be isolated from appropriate cell lines which contain them. For example, the EGFR de1746-750 mutant protein may be extracted from PC-9 cells, and the L858R/T790M double mutant EGFR protein may be isolated from H1975 cells.
Determination of IC50 Values for Single Mutant EGFR_d746-750
Dilute all compounds to 500 μM stock solutions in 100% DMSO and make a serial of 4-fold dilution for 10 doses. “Max” and “Min” control contain 100% DMSO. “Max” stands for […], “Min” stands for low control without compounds. Transfer 10 μl of compounds to 90 μl of 1× kinase base buffer to make intermediate dilution. […] Incubate at RT for 1 hr and 25 μl stop buffer to end up reaction. Collect conversion data from Caliper and conversion data from Caliper program. Fit the data in XLfit to obtain IC50 values.

Another test deals with T1, Wt EGFR (Homo sapiens, UniProt P00533).
T1 construct: isolated from A431 human epidermoid carcinoma cells which overexpress EGF receptor; endogenous in cells; host or cells: A431 human epidermoid carcinoma cells (receptor purified on wheat germ agglutinin sepharose)
The test is described as follows: Enzyme assay, IC50 for wt EGFR (Caliper). The class given is biochemical. Conditions: enzyme phosphorylation assay; read-out: EGFR_WT IC50. The procedure: Purification of Epidermal Growth Factor Receptor Tyrosine Kinase Human EGF receptor tyrosine kinase was isolated from A431 human epidermoid carcinoma cells which overexpress EGF receptor by the following methods. Cells were grown in roller bottles in 50% Delbuco's Modified Eagle and 50% HAM F-12 nutrient media (Gibco) containing 10% fetal calf serum. Approximately 10^9 cells were lysed in two volumes of buffer containing 20 mM 2-(4N-[2-hydroxyethyl]piperazin-1-yl)ethanesulfonic acid (hepes), pH 7.4, 5 mM ethylene glycol bis(2-aminoethyl ether) N,N,N′,N′-tetraacetic acid, 1% Triton X-1OO, 10% glycerol. 0.1 mM sodium orthovanadate, 5 mM sodium fluoride, 4 mM pyrophosphate, 4 mM benzamide, 1 mM dithiothreitol, 80 μg/mL aprotinin, 40 μg/mL leupeptin and 1 mM phenylmethylsulfonyl fluoride. After centrifugation at 25,000×g for 10 minutes, the supernatant was equilibrated for 2 h at […], with 10 mL of wheat germ agglutinin sepharose that was previously equilibrated with 50 mM Hepes, 10% glycerol, 0.1% Triton X-100 and 150 mM NaCl, pH 7.5, (equilibration buffer). Contaminating proteins were washed from the resin with 1M NaCl in equilibration buffer, and the enzyme was eluted with 0.5M N-acetyl-1-D-glucosamine in equilibration buffer, followed by 1 mM urea. The enzyme was eluted with 0.1 mg/ml EGF.
Determination of IC50 Values for Wt EGFR
Dilute all compounds to 500 μM stock solutions in 100% DMSO and make a serial of 4-fold dilution for 10 does. “Max” and “Min” control contain 100% DMSO. “Max” stands for […], “Min” stands for low control without compounds. Transfer 10 μl of compounds to 90 μl of Ix kinase base buffer to make intermediate dilution. Transfer 5 μl of intermediate dilution compounds to the 384-well assay plate, then 10 μl 2.5× enzyme buffer containing (20 nM EGFR, 5 mM DTT, 1× kinase base buffer) were added to assay plate. […] Incubate at RT for 1 hr and 25 μl stop buffer to end up reaction. Collect conversion data from Caliper and conversion data from Caliper program. Fit the data in XLfit to obtain IC50 values.

In a further test the target is EGFR_T790M/L858R (Homo sapiens, UniProt P00533, L858R/T790M). The test is described as follows: Enzyme assay, IC50 for double-mutant EGFR (EGFR_T790M/L858R) (Caliper). Format: biochemical. Conditions: enzyme phosphorylation assay; read-out: EGFR_L858R/T790 IC50. As to the method:
as §1
Determination of IC50 Values for Double-Mutant EGFR (EGFR_T790M/L858R)
Dilute all compounds to 500 μM stock solutions in 100% DMSO and make a serial of 4-fold dilution for 10 does. “Max” and “Min” control contain 100% DMSO. “Max” stands for […], “Min” stands for low control without compounds. Transfer 10 μl of compounds to 90 μl of 1× kinase base buffer to make intermediate dilution. […] Incubate at RT for 1 hr and 25 μl stop buffer to end up reaction. Collect conversion data from Caliper and conversion data from Caliper program. Fit the data in XLfit to obtain IC50 values.

The subject of the next test is PC9 cells (SM). Put plainly: PC-9 growth inhibition assay (cell proliferation), Method B. The conditions noted are these: cellular proliferation, several runs. Format: cell-based, human. The procedure:
(§2) Cell Proliferation Assays—Method B
(§3) Test compounds were dissolved in DMSO at 30 mM.
(§4) The final concentration was 1,000 cells/well. Add medium only as low control. […] 5% CO2 incubator for 72 hours.
(§5) After 72 hours incubation, remove the plates from incubator and equilibrate at room temperature for 15 minutes. Incubate the CellTiter Glo reagents (Promega, G9243) at 37° C. before the experiment. The buffer was equilibrated to room temperature and used to dissolve the substrate. To determine the cell viability, add 40 μL of CellTiter-Glo reagent into each well to be detected (at 1:1 to culture medium). Then the place the plates at room temperature for 30 min followed by read on EnSpire (PerkinElmer).
(§6) For estimation of IC50, the luminescence readout are transformed to % Inhibition by applying the following equation: The IC50 was then
(§7) [formula] calculated by fitting in XLFit to a four parameters logistic curve.
PC-9 Growth Inhibition Assay (Cell Proliferation).
The inhibition assay of PC-9 cells was conducted in the same manner as described above for H1975 cells.

For another test, the target named is T2, IGF-1R (Homo sapiens, UniProt P08069).
T2 construct: purchased CARNA BIOSCIENCE 08-141
The test is described as follows: IGF-1R inhibition assay (Caliper EZ Reader). Format: biochemical. The conditions noted are these: enzyme assay. The procedure: (§8) Test compound was dissolved in DMSO at 30 mM. […] 20 nL of these compounds DMSO dilutes were dispensed into a new 384-well assay plate by Echo 550. […] 15 uL of kinase assay buffer containing IGF-1R protein and substrate was transferred to assay plate and incubate at RT for 30 minutes. Kinase assay buffer supplemented with substrate peptides was employed as low control to monitor the background. 40 μM ATP was prepared in kinase assay buffer containing and 5 μL of ATP solution was added to each well to start the reaction. The assay plate was incubated at 25° C. for 180 minutes and the reaction was stopped by adding 40 μL of 0.5 M EDTA.
Phosphorylated fluorescent-tagged peptides were differentiated from non-phosphorylated peptides by separating using Caliper EZ Reader II and the detection was directly converted to conversion ratio.

The subject of the next test is A431 cells (WT). Put plainly: A431 inhibition assay (cell proliferation), Method B. Format: cell-based, human. The conditions noted are these: Homo sapiens, A-431, 72 h, cellular proliferation, several runs. As to the method:
as §2
A431 Inhibition Assay, (Cell Proliferation).
The rest procedure was conducted in the same manner as described above for H1975 cells.

A further test concerns H1975 cells (DM). The test is described as follows: H1975 inhibition assay (cell proliferation), Method B. The conditions noted are these: cellular proliferation, several runs. Format: cell-based. The procedure: as §2
H1975 Inhibition Assay (Cell Proliferation).
as §3, §4, §5, §6, §7

The target in a further test is T3, INSR (Homo sapiens, UniProt P06213).
T3 construct: purchased CARNA BIOSCIENCE 08-142
Put plainly: INSR inhibition assay (Caliper EZ Reader). The class given is biochemical. Conditions: enzyme assay. The procedure:
as §8, with “INSR” for “IGF-1R”, “LM” for “μM”
The result is analyzed in the same manner of […].

Test [1] relates to NCI-H1975 cells (EGFR L858R/T790 double mutant). The test is described as follows: H1975 inhibition assay (cell proliferation), Method A. Format: cell-based. The conditions noted are these: Homo sapiens, NCI-H1975; cellular proliferation, *tested by method A (Table 2); read-out: DM (H1975) IC50. As to the method:
(§9) Cell Proliferation Assays—Method A
H1975 Inhibition Assay (Cell Proliferation)
(§10) The final concentration was 4,000 cells/well. Add medium only as low control.
(§11) Day-2: Test compounds were dissolved in DMSO at 0.2 mM (200×).
(§12) Day-5: After 72 hours incubation, remove the plates from incubator and equilibrate at room temperature for 15 minutes. Incubate the CellTiter Glo reagents (Promega, G9243) at 37° C. before the experiment. The buffer was equilibrated to room temperature and used to dissolve the substrate. To determine the cell viability, add 30 μL of CellTiter-Glo reagent into each well to be detected. Then shake the plates at room temperature for 10 min and followed by plate read on Envision (PerkinElmer).
as §6, §7

Test [2] has as its system PC9 cells (EGFR d746-750 single mutant). Put plainly: PC-9 growth inhibition assay (cell proliferation), Method A. The class given is cell-based, human. Conditions: Homo sapiens, PC-9; cellular proliferation, *tested by method A (Table 2); read-out: SM (PC9) IC50. As to the method:
as §9, §10, §11, §12, §6, §7
PC-9 Growth Inhibition Assay (Cell Proliferation)
The inhibition assay for PC-9 cells was processed in the same manner as described for the H1975 cells.

Each structure is given as a SMILES string. Structures can show the parent of a compound that is named as a salt.

T3 sequence (P06213 989-1382 limits assumed): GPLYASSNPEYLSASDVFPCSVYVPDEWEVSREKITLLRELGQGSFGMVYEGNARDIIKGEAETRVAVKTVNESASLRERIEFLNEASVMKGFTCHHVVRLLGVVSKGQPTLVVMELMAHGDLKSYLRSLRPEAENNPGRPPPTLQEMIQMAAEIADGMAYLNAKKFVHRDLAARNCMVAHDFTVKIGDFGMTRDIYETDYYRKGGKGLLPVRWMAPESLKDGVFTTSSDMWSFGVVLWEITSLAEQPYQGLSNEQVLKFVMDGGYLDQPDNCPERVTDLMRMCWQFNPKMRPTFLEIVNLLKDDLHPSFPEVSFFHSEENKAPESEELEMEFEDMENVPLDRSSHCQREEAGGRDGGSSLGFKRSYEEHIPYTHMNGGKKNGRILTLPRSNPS
T2 sequence (P08069 959-1367 limits assumed): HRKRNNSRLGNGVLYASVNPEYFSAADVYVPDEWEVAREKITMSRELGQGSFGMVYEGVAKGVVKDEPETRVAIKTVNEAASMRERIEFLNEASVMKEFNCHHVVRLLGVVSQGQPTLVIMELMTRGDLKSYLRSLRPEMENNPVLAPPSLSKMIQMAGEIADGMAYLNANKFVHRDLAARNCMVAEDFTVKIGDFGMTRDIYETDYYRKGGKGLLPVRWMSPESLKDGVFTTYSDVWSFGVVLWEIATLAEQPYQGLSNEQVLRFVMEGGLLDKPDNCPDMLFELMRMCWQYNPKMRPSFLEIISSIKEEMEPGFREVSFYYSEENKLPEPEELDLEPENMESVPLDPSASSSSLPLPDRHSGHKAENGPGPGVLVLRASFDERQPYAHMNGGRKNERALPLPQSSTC
Sequence of EGFR_d746-750 (P00533 with tags, fused parts or gaps DEL746-750): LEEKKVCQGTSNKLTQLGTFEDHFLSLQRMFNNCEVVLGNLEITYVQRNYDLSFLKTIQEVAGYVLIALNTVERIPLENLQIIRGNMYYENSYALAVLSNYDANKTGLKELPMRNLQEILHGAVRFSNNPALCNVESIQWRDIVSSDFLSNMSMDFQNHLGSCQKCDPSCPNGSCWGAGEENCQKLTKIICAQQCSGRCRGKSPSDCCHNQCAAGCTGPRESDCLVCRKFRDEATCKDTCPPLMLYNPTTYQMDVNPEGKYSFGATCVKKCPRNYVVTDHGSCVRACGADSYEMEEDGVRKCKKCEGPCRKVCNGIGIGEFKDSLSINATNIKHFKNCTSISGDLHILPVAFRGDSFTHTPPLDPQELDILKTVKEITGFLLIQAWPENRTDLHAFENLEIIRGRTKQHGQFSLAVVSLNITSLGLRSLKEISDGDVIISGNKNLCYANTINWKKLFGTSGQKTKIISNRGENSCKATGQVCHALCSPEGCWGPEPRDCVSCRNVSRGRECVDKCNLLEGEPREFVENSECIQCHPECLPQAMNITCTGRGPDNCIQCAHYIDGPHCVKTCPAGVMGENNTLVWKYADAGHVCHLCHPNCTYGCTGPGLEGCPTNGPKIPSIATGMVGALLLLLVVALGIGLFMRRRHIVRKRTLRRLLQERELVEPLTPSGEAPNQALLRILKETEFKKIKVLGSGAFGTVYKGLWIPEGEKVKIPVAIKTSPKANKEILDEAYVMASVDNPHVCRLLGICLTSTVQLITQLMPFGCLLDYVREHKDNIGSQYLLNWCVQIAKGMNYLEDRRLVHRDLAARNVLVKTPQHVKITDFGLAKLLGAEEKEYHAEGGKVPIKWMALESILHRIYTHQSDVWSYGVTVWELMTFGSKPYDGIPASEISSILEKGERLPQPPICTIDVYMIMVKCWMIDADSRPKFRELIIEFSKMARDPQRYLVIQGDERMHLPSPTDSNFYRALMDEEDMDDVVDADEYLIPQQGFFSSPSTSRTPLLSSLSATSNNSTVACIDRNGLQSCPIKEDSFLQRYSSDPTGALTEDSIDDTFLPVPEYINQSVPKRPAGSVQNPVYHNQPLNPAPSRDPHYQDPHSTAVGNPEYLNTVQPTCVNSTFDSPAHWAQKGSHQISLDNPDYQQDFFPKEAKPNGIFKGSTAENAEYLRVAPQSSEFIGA
Sequence of EGFR_T790M/L858R (P00533 25-1210 T790M/L858R): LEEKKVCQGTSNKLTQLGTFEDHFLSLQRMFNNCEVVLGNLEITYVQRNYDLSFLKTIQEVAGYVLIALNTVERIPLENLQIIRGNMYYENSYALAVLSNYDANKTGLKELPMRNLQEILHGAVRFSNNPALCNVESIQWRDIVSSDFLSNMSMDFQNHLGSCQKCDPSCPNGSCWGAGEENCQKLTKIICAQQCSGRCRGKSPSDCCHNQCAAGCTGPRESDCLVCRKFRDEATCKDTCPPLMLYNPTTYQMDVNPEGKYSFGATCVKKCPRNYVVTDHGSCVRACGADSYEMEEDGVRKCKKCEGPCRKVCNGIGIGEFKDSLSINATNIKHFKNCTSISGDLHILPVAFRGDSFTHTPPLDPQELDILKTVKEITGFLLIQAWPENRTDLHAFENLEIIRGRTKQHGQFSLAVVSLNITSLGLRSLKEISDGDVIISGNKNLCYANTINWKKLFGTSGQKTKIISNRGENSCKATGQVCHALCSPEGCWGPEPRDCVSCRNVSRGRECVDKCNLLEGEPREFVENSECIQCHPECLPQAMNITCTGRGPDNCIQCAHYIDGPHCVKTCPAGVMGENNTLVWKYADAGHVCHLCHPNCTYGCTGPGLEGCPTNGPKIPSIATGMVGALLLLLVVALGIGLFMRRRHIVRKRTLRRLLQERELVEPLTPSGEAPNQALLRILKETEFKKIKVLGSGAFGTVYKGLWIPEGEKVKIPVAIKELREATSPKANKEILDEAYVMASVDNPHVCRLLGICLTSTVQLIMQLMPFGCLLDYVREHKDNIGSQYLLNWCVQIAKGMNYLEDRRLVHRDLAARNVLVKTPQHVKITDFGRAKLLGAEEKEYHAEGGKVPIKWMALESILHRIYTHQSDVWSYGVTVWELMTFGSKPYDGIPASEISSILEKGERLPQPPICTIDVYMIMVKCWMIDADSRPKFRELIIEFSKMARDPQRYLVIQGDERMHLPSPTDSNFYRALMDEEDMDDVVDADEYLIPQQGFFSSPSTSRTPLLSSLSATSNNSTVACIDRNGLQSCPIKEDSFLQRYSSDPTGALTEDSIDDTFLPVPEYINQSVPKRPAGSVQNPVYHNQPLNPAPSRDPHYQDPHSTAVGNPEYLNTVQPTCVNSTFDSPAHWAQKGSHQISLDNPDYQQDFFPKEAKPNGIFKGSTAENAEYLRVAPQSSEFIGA
T1 sequence (P00533 25-1210): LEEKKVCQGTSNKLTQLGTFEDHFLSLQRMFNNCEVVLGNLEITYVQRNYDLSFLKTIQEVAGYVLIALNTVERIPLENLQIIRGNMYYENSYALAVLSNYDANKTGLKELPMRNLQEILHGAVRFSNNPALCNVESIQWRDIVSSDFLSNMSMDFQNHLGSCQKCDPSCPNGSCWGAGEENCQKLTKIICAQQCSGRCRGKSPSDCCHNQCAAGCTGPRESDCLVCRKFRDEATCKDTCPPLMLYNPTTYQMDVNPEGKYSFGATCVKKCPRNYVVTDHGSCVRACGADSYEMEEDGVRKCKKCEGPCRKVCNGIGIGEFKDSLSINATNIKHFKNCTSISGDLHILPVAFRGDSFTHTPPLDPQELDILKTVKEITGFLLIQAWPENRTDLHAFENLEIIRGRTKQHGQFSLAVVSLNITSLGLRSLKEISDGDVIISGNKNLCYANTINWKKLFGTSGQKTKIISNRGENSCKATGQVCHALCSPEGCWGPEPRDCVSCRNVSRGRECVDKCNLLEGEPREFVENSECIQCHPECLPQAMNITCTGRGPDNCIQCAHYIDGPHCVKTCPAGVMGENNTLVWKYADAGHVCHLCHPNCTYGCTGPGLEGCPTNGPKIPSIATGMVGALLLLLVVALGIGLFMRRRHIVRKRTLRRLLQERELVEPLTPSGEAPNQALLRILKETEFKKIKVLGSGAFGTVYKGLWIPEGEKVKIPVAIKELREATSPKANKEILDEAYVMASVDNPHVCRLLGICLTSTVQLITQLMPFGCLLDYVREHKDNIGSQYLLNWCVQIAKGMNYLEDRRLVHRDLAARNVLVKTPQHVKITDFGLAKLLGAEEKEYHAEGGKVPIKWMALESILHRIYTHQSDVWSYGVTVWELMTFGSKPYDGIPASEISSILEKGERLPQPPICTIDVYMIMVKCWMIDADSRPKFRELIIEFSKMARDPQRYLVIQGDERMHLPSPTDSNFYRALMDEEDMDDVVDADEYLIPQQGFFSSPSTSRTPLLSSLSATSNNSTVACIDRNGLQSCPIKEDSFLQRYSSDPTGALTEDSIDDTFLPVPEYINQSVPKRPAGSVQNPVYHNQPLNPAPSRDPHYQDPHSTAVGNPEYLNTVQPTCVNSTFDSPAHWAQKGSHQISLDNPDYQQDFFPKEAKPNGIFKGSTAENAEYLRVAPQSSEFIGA

Regarding `C=CC(=O)Nc1cc(Nc2nccc(-c3cn(C)c4cccc(Cl)c34)n2)c(OC)cc1N(C)CCN(C)C` [Example 6, N-(2-(N-(2-(N,N-Dimethylamino)ethyl)-N-methylamino)-4-methoxy-5-(4-(4-chloro-1N-methylindol-3-yl)pyrimidin-2-ylamino)phenyl) propenamide], the IC50 against EGFR_d746-750 stood at 9.2 nM; at Wt EGFR, 44 nM; at EGFR_T790M/L858R, 7 nM.

On to `C=CC(=O)Nc1cc(Nc2nccc(-n3cc(S(N)(=O)=O)c4ccccc43)n2)c(OC)cc1N(C)CCN(C)C` [Example 17, N-(2-((2-(Dimethylamino)ethyl)(methyl)amino)-4-methoxy-5-(4-(3-sulfamoyl-1H-indol-1-yl)pyrimidin-2-ylamino)phenyl) acrylamide], for which the IC50 amounted to 0.93 nM in the test with PC9 cells (SM) (Homo sapiens, PC-9, 72 h); 71.2 nM against IGF-1R; 162 nM in the test with A431 cells (WT); 0.94 nM with H1975 cells (DM) (Homo sapiens, NCI-H1975, 72 h); 67.6 nM against INSR.

For the compound `C=CC(=O)Nc1cc(Nc2nccc(-c3c[nH]c4c(C(N)=O)cccc34)n2)c(OC)cc1N(C)CCN(C)C` [Example 16, 3-(2-(5-Acrylamido-4-((2-(dimethylamino)ethyl)(methyl)amino)-2-methoxyphenylamino)pyrimidin-4-yl)-1H-indole-7-carboxamide], the IC50 came to 0.76 nM with PC9 cells (SM) (Homo sapiens, PC-9, 72 h); 3.94 nM on IGF-1R; 121 nM in the test on A431 cells (WT); 0.72 nM in the test on H1975 cells (DM) (Homo sapiens, NCI-H1975, 72 h); 4.76 nM against INSR.

Turning to `C=CC(=O)Nc1cc(Nc2nccc(-n3nc(N)c4ccccc43)n2)c(OC)cc1N(C)CCN(C)C` [Example 20], the IC50 in the test with PC9 cells (SM) (Homo sapiens, PC-9, 72 h) came out at 1.92 nM; with PC9 cells (SM) (72 h) it was 1.54 nM; on IGF-1R, 23.5 nM; in the test on H1975 cells (DM) (Homo sapiens, NCI-H1975, 72 h), 2.35 nM; with H1975 cells (DM) (72 h), 2.12 nM; on INSR, 19.3 nM.

With `C=CC(=O)Nc1cc(Nc2nccc(-n3cc(C(=O)O)c4ccccc43)n2)c(OC)cc1N(C)CCN(C)C` [Example 30, 1-(2-((5-Acrylamido-4-((2-(dimethylamino)ethyl)(methyl)amino)-2-methoxyphenyl)amino)pyrimidin-4-yl)-1H-indole-3-carboxylic acid], the IC50 amounted to 19.2 nM in the test on PC9 cells (SM) (Homo sapiens, PC-9, 72 h); 210 nM against IGF-1R; 1680 nM with A431 cells (WT); 20.4 nM in the test with H1975 cells (DM) (Homo sapiens, NCI-H1975, 72 h); 206 nM at INSR.

`C=CC(=O)Nc1cc(Nc2nccc(-n3cc(CN)c4ccccc43)n2)c(OC)cc1N(C)CCN(C)C` [Example 19, N-(5-(4-(3-(Aminomethyl)-1H-indol-1-yl)pyrimidin-2-ylamino)-2-((2-(dimethylamino)ethyl)(methyl)amino)-4-methoxyphenyl) acrylamide]: the IC50 in test [1] was found to be 12.7 nM; in test [2] it was 16.7 nM.

On to `C=CC(=O)Nc1cc(Nc2nccc(-n3cc(C(=O)NC)c4ccccc43)n2)c(OC)cc1N(C)CCN(C)C` [Example 36, N-Methyl 1-(2-((5-acrylamido-4-((2-(dimethylamino)ethyl)(methyl)amino)-2-methoxyphenyl)amino)pyrimidin-4-yl)-1H-indole-3-carboxamide hydrochloride], for which the IC50 in [1] is 39.5 nM; in test [2], 57.5 nM.

For `C=CC(=O)Nc1cc(Nc2nccc(-n3nc(C(N)=O)c4ccccc43)n2)c(OC)cc1N(C)CCN(C)C` [Example 18, 1-(2-(5-Acrylamido-4-((2-(dimethylamino)ethyl)(methyl)amino)-2-methoxyphenylamino)pyrimidin-4-yl)-1H-indazole-3-carboxamide], the IC50 in the test on PC9 cells (SM) (Homo sapiens, PC-9, 72 h) was found to be 0.64 nM; against IGF-1R, 2.15 nM; in the test with A431 cells (WT), 40 nM; in the test on H1975 cells (DM) (Homo sapiens, NCI-H1975, 72 h), 0.41 nM; against INSR, 2.28 nM.
